The values that follow are results of earlier work, collected in publication PMC4183665 (2014).

Entries after “also recorded” stand apart in the source; their conditions may differ.

Data set [1] relates to dipeptidyl peptidase-4 (DPP-4).

In the case of H-HAEGTFTSDVSSYLEGQAAKEFIAWLVKGRG-NH2, the cleaved bond result in the data set with neprilysin (NEP 24.11) was “cleaves after Ser18; also recorded: cleaves after Tyr19; also recorded: cleaves after Glu27; also recorded: cleaves after Phe28”; in data set [1] it was “cleaves after Ala8”.
